Results taken from US20260055161A1, “PSCA CAR-T CELLS” (Regeneron Pharmaceuticals, Inc., priority 2018, published 2026).

How the values were obtained:
[1] = test system: serum cytokines and chemokines (IP-10, TNF-α, MCP-1, MIP-1α, MIP-1β); test: peripheral cytokine profiles over time; type: in vivo, human
Description: Cohort 3 (1.25×10^6 cells/kg) was the initial starting cohort for cell dose escalation decisions in Part 1 when PSCA CAR-T cells are administered with rimiducid. Cohorts of 3 subjects were treated with escalating doses of PSCA CAR-T cells on Day 0 with a fixed, single dose of rimiducid (0.4 mg/kg) on Day 7. The doses of PSCA CAR-T cells are detailed in FIG. 8.

cells = test: AP1903 amount needed in vitro for effective signaling of cells; type: cell-based
[2] = healthy volunteers; cited from earlier work
peripheral lymphocytes = conditions: 1 patient with increased IL-7 and IL-15 levels after lymphodepletion
Description: FIG. 8 provides a table showing patient demographics and clinical characteristics. *Cytoxan 1 g/m^2 by IV infusion on Day −3; † PSCA (copies per 10^6 copies hACTB) was measured at screening.

| Structure (SMILES) | serum cytokines (IP-10, TNF-α) ([1]; 8 patients that received rimiducid after CAR-T cells) | chemokine levels (MCP-1, MIP-1α, MIP-1β) ([1]; many patients, after rim infusion) | amount needed in vitro for effective signaling of cells (cells) [nM] | amount needed for effective signaling, equivalent (cells; MW: 1412 Da) [µg/L] | safety [2] | peripheral lymphocyte count, of the starting level (peripheral lymphocytes) [%] |
| --- | --- | --- | --- | --- | --- | --- |
| CC[C@H](C(=O)N1CCCC[C@H]1C(=O)O[C@H](CCc1ccc(OC)c(OC)c1)c1cccc(OCC(=O)NCCNC(=O)COc2cccc([C@@H](CCc3ccc(OC)c(OC)c3)OC(=O)[C@@H]3CCCCN3C(=O)[C@@H](CC)c3cc(OC)c(OC)c(OC)c3)c2)c1)c1cc(OC)c(OC)c(OC)c1 (relative stereo) [rimiducid, 2-Piperidinecarboxylic acid, 1-[(2S)-1-oxo-2-(3,4,5-trimethoxyphenyl)butyl]-, 1,2-ethanediylbis[imino(2-oxo-2,1-ethanediyl)oxy-3,1-phenylene[(1R)-3-(3,4-dimethoxyphenyl)propylidene]]ester, [2S-[1(R*),2R*[S*[S*[1(R*),2R*]]]]]-(9C1)] | all had elevated cytokines (IP-10, TNF-α) correlated with cell expansion | Increased chemokine levels | 10 to 100 | 14 to 140 | safe |  |
| O=P1(N(CCCl)CCCl)NCCCO1 (stereo not drawn) [cyclophosphamide] |  |  |  |  |  | 31 |
